Laboratory results taken from patent US10082496B2, “Targeting emopamil binding protein (EBP) with small molecules that induce an abnormal feedback response by lowering endogenous cholesterol biosynthesis” (Board of Regents of the University of Texas System, priority 2014, dated 2018).

Key:
[1] = tested on: HCT-116; assay: In vitro APC inhibition assay (MTT), HCT-116; format: cell-based; conditions: Homo sapiens, HCT-116, read-out: IC50 (nM) in HCT-116
Procedure: (§1) The small molecule anti-cancer compounds were evaluated for the ability to inhibit the activity of APC in an in vitro assay.
Reagents required for the assay are: (3-[4,5-Dimethylthiazol-2-yl]-2,5-diphenyltetrazolium bromide; Thiazolyl blue; RPI corp., cat# M92050); RPMI-1640 or Medium of Choice (i.e. DMEM) without phenol red; 1M Hepes; 100 mM NaPyruvate; 1000× Gentamicin (50 mg/ml); 100× Penicillin/Streptomycin/Fungizone; 1×PBS; Triton X-100; 1N HCl and Isopropanol. To make the MTT solution (10×), MTT powder was dissolved into complete RPMI (or DMEM solution) to a final concentration of 5 mg/mL and was sterilized by filtration with a 0.2 μm filter. The MTT solubilization solution contained 10% Triton X-100, 0.1N and 80% isopropanol. MTT solution was diluted to 1× with complete medium at 12 mL per plate. The culture dishes (96 wells) were removed from the incubator and the media was discarded. The plates were washed three times with 1×PBS. 100 μl of 1×MTT solution was added to each well and the plates were incubated in a tissue culture incubator for 2-4 hours, depending on the cell line. The cells were removed from the incubator and the MTT solution was discarded. 200 μl of 1×MTT solubilization solution was added to each well using a multi-channel pipetor and the cells were placed on an orbital shaker for 10 minutes. The results were read on a microtiter plate reader (absorbance=570 nm, reference=700 nm) and data was exported.
(§2) Percent inhibition was determined relative to control reactions without inhibitor, and half maximal inhibitory concentration (IC50) values were determined using a standard four parameter fit to the inhibition data.

[2] = tested on: HT-29; assay: In vitro APC inhibition assay (MTT), HT-29; format: cell-based; conditions: Homo sapiens
Procedure: as §1
(§3) Reagents required for the assay are: (3-[4,5-Dimethylthiazol-2-yl]-2,5-diphenyltetrazolium bromide; Thiazolyl blue; RPI corp., cat# M92050); RPMI-1640 or Medium of Choice (i.e. DMEM) without phenol red; 1M Hepes; 100 mM NaPyruvate; 1000× Gentamicin (50 mg/ml); 100× Penicillin/Streptomycin/Fungizone; 1×PBS; Triton X-100; 1N HCl and Isopropanol. To make the MTT solution (10×), MTT powder was dissolved into complete RPMI (or DMEM solution) to a final concentration of 5 mg/mL and was sterilized by filtration with a 0.2 μm filter. The MTT solubilization solution contained 10% Triton X-100, 0.1N and 80% isopropanol. MTT solution was diluted to 1× with complete medium at 12 mL per plate. The culture dishes (96 wells) were removed from the incubator and the media was discarded. […] The cells were removed from the incubator and the MTT solution was discarded.
as §2

[3] = tested on: DLD-1; assay: In vitro APC inhibition assay (MTT), DLD-1; format: cell-based; conditions: Homo sapiens
Procedure: as §1, §3, §2

[4] = S9 half-life; format: in vitro ADME; conditions: S9 fraction; read-out: S9 T1/2

Structure (SMILES)	IC50 [1] [nM]	IC50 ([3]; DLD-1, DLD-1 (truncated APC)) [nM]	also measured
CC1CCN(C2CCN(S(=O)(=O)c3ccc(-c4ccccc4)cc3)CC2)CC1	> 10000		IC50 ([2]; HT-29, HT-29 (truncated APC)): 234 nM
CC1CCN(C2CCN(S(=O)(=O)c3cccc(Br)c3)CC2)CC1	> 10000		
C#CCC1CCN(C2CCN(S(=O)(=O)c3ccc(Br)cc3)CC2)CC1	> 10000		
COc1ccc(S(=O)(=O)N2CCC(N3CCC(C)CC3)CC2)c(OC)c1		41	
Cc1cc(C)c(S(=O)(=O)N2CCC(N3CCC(c4ccccc4)CC3)CC2)c(C)c1	> 10000		
CC1CCN(C2CCN(S(=O)(=O)c3cccc4c3OCCO4)CC2)CC1		10	half-life [4]: 22.6 min
C[C@H]1CC[N@@+](C)(C2CCN(S(=O)(=O)c3ccccc3)CC2)CC1		~7960	
CC(C)c1cc(C(C)C)c(S(=O)(=O)N2CCC(N3CCCC3)CC2)c(C(C)C)c1		374	
CC1CCN(C2CCN(S(=O)(=O)c3cccnc3)CC2)CC1	> 10000		IC50 ([2]; HT-29, HT-29 (truncated APC)): 2200 nM
CC1CCN(C2CCN(S(=O)(=O)c3ccc(C#N)cc3)CC2)CC1	> 10000		
C#CCOc1ccc(C(=O)c2ccccc2)cc1S(=O)(=O)N1CCC(N2CCC(C)CC2)CC1	> 10000	504	IC50 ([2]; HT-29, HT-29 (truncated APC)): 185 nM
CC1CCN(C2CCN(S(=O)(=O)c3cccc(C(C)(C)C)c3)CC2)CC1		463	
COc1ccc(Br)cc1S(=O)(=O)N1CCC(N2CCC(C)CC2)CC1	> 10000		
COc1ccc(-c2ccc(S(=O)(=O)N3CCC(N4CCC(C)CC4)CC3)cc2)cc1	> 10000		IC50 ([2]; HT-29, HT-29 (truncated APC)): 288 nM
C#CCOc1ccc(N=[N+]=[N-])cc1S(=O)(=O)N1CCC(N2CCC(C)CC2)CC1	> 10000	15000	IC50 ([2]; HT-29, HT-29 (truncated APC)): 4500 nM
O=S(=O)(c1cccc2ccccc12)N1CCC(N2CCCC2)CC1		3900	
CC1CCN(C2CCN(S(=O)(=O)c3ccccc3Br)CC2)CC1	> 10000		
Cc1cc(C)c(S(=O)(=O)N2CCC(N3CC(C)CC(C)C3)CC2)c(C)c1 (centres unmarked)	> 10000		IC50 ([2]; HT-29, HT-29 (truncated APC)): 15 nM
C#CCC1CCCCN1C1CCN(S(=O)(=O)c2ccccc2)CC1 (centres unmarked)	> 10000		IC50 ([2]; HT-29, HT-29 (truncated APC)): 1100 nM
Cc1cc(C)c(S(=O)(=O)N2CCC(N3CCCC3)CC2)c(C)c1		172	
COc1ccc(S(=O)(=O)N2CCC(N3CCC(C)CC3)CC2)cc1 [drawing 83]	> 10000		
CC1CCN(C2CCN(S(=O)(=O)c3ccc(OC(F)(F)F)c(C#CCCCCO)c3)CC2)CC1		205	

Structure (SMILES)	IC50 [1] [nM]	IC50 ([3]; DLD-1, DLD-1 (truncated APC)) [nM]	also measured
C#CCC1CCN(C2CCN(S(=O)(=O)c3ccccc3N=[N+]=[N-])CC2)CC1		5300	
COc1ccccc1-c1ccc(S(=O)(=O)N2CCC(N3CCC(C)CC3)CC2)cc1	> 10000		IC50 ([2]; HT-29, HT-29 (truncated APC)): 19 nM
Cc1cc(C)c(S(=O)(=O)N2CCC(N3CCC(C)OC3)CC2)c(C)c1 (centres unmarked)	> 10000		IC50 ([2]; HT-29, HT-29 (truncated APC)): 61 nM
C#CCC1CCN(C2CCN(S(=O)(=O)c3ccc(N=[N+]=[N-])cc3)CC2)CC1		235	
CC1CCCN(C2CCN(S(=O)(=O)c3ccc([N+](=O)[O-])cc3)CC2)C1 (centres unmarked)		366	
C#CCC1CCN(C2CCN(S(=O)(=O)c3cccc(N=[N+]=[N-])c3)CC2)CC1		1900	
CC1CCN(C2CCN(S(=O)(=O)c3ccc(Br)cc3)CC2)CC1	> 10000		IC50 ([2]; HT-29, HT-29 (truncated APC)): 1.2 nM
Cc1cc(C)c(S(=O)(=O)N2CCC(N3CCC(CCC#N)CC3)CC2)c(C)c1	> 10000		
CC1CCN(C2CCN(Cc3ccc(OC(F)(F)F)cc3)CC2)CC1		19	
CC1CCCN(C2CCN(S(=O)(=O)c3ccc(F)cc3)CC2)C1 (centres unmarked)		255	
C#CCOCCC1CCCCN1C1CCN(S(=O)(=O)c2ccccc2)CC1 (centres unmarked)	> 10000		IC50 ([2]; HT-29, HT-29 (truncated APC)): 2300 nM
CC1CCN(C2CCN(S(=O)(=O)c3ccc(Cl)cc3)CC2)CC1	> 10000		IC50 ([2]; HT-29, HT-29 (truncated APC)): 5.6 nM
CC1CCN(C2CCN(S(=O)(=O)c3ccc(Br)cc3OC(F)(F)F)CC2)CC1	> 10000		
CC1CCN(C2CCN(S(=O)(=O)c3cccc(-c4ccccc4)c3)CC2)CC1	> 10000		
CC1CCN(C2CCN(S(=O)(=O)c3ccc(OC(F)(F)F)c(Br)c3)CC2)CC1		29	
COc1ccc(S(=O)(=O)N2CCC([N+]3(C)CCCC3)CC2)cc1		> 10000	
CC1CCN(C2CCN(S(=O)(=O)c3ccc(Oc4ccccc4)cc3)CC2)CC1		253	
CC1CCN(C2CCN(S(=O)(=O)c3ccc(OC(F)F)cc3)CC2)CC1	> 10000		
CC1CCN(C2CCN(S(=O)(=O)c3cccc(OC(F)(F)F)c3)CC2)CC1		56	
C[C@H]1CC[N@+](C)(C2CCN(S(=O)(=O)c3ccccc3)CC2)CC1		> 10000	
C[N+]1(C2CCN(S(=O)(=O)c3cccc4ccccc34)CC2)CCCC1		2300	
Cc1cc(C)c(S(=O)(=O)N2CCC(N3CCC(Cc4ccccc4)CC3)CC2)c(C)c1	> 10000		

Structure (SMILES)	IC50 [1] [nM]	IC50 ([3]; DLD-1, DLD-1 (truncated APC)) [nM]	also measured
CC1CCCN(C2CCN(S(=O)(=O)c3ccc(C(F)(F)F)cc3)CC2)C1 (centres unmarked)		29	
CC1CCN(C2CCN(S(=O)(=O)c3ccccc3-c3ccc(C(F)(F)F)cc3)CC2)CC1	> 10000		IC50 ([2]; HT-29, HT-29 (truncated APC)): 57 nM
CC1CCN(C2CCN(S(=O)(=O)c3ccc4ncsc4c3)CC2)CC1	> 10000	38	IC50 ([2]; HT-29, HT-29 (truncated APC)): 26 nM
CC1CCN(C2CCN(S(=O)(=O)c3ccc(-c4ccccc4F)cc3)CC2)CC1	> 10000		
CC1CCN(C2CCN(S(=O)(=O)c3ccc(Cl)c(Cl)c3)CC2)CC1	> 10000		
C#CCOc1ccc(CN2CCC(N3CCC(C)CC3)CC2)cc1N=[N+]=[N-]	> 10000	921	IC50 ([2]; HT-29, HT-29 (truncated APC)): 437 nM
CC1CCN(C2CCN(S(=O)(=O)c3ccc(-c4ccc(Cl)cc4)cc3)CC2)CC1	> 10000		IC50 ([2]; HT-29, HT-29 (truncated APC)): 112 nM
C#CCC1CCN(C2CCN(S(=O)(=O)c3ccc(C(=O)c4ccccc4)cc3)CC2)CC1	> 10000	4.8	IC50 ([2]; HT-29, HT-29 (truncated APC)): 5.2 nM
CC1CCCN(C2CCN(S(=O)(=O)c3ccc(Oc4ccccc4)cc3)CC2)C1 (centres unmarked)		244	
Cc1cc(C)c(S(=O)(=O)N2CCC(N3CCC(C(C)C)CC3)CC2)c(C)c1	> 10000		
CCCCC#Cc1cc(S(=O)(=O)N2CCC(N3CCC(C)CC3)CC2)ccc1OC(F)(F)F		147	
Cc1cc(C)c(S(=O)(=O)N2CCC(N3CCOCC3)CC2)c(C)c1	> 10000		
CC1CCCN(C2CCN(S(=O)(=O)c3ccc(OC(F)(F)F)cc3)CC2)C1 (centres unmarked)		31	
C#CCOCCC1CCN(C2CCN(S(=O)(=O)c3ccccc3)CC2)CC1	> 10000		IC50 ([2]; HT-29, HT-29 (truncated APC)): 35 nM
C[Si](C)(C)C#CCC1CCN(C2CCN(S(=O)(=O)c3ccc(Br)cc3)CC2)CC1	> 10000		IC50 ([2]; HT-29 (truncated APC)): 1.7 nM; IC50 ([3]; DLD-1 (truncated APC)): 2.9 nM
Cc1cc(C)c(S(=O)(=O)N2CCC([N+]3(C)CCCC3)CC2)c(C)c1		69	
Cc1nc(Cl)sc1S(=O)(=O)N1CCC(N2CCC(C)CC2)CC1	> 10000		
Cc1cc(C)c(S(=O)(=O)N2CCC(N3CCCCC3)CC2)c(C)c1	> 10000		
O=S(=O)(c1ccc(OC(F)(F)F)cc1)N1CCC(N2CCOCC2)CC1		501	
Cc1ccc(S(=O)(=O)N2CCC(N3CCC(C)CC3)CC2)cc1	> 10000		IC50 ([2]; HT-29, HT-29 (truncated APC)): 14 nM
CC1CCN(C2CCN(S(=O)(=O)c3ccccc3OC(F)(F)F)CC2)CC1		421	
